Measurements: publication PMC10363480 (Plant Communications, 2023)

What follows are sequences tested on mitochondria or chloroplast of Chlamydomonas reinhardtii (assay: Subcellular localization of Venus reporter by epifluorescence microscopy (manual targeting assignment)). Settings: manual targeting assignment of the Venus reporter construct in Chlamydomonas: Neither / Mitochondria / Chloroplast / Dual, (partial) = partial targeting.
Assay type: cell-based
In short: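 Targeting peptide variants fused to Venus reporter, transformed into Chlamydomonas wild-type T222+ (CC-5101); three independent transformant lines per construct. Localization assigned manually from epifluorescence images using chlorophyll autofluorescence for chloroplast and 0.1 μM MitoTracker Red CMXRos (30 min) for mitochondria. Automated segmentation used for validation.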

Row | Sequence | Localisation
1 | MQVTMKSSAVSGQRVMLKKVGQSLVPFAKAG [c.MH.K] | Neither
2 | MQVTMKSSAVSGQRVMLKKVGQSLVPFAKAGLTQTAESFKGVSSQFFDAPNGPSVKQVLIEDEW [c.MH.K.m] | Neither
3 | MQVTMKSSAVSGQRVMLKKVGQSLVPFAKAGSVRRAQLQVVASSRKQMGRWRSIDAGVDASDDQ [c.MH.K.c] | Chloroplast
4 | MQVTMKSSAVSGQRVMLKRVGQSLVPFARAG [c.MH.R] | Neither
5 | MQVTMKSSAVSGQRVMLKRVGQSLVPFARAGLTQTAESFRGVSSQFFDAPNGPSVKQVLIEDEW [c.MH.R.m] | Neither
6 | MQVTMKSSAVSGQRVMLKRVGQSLVPFARAGSVRRAQLQVVASSRKQMGRWRSIDAGVDASDDQ [c.MH.R.c] | Chloroplast
7 | MQVTMKSSAVSGQRVRYYGNGVSCNRRGCSVDWGRAIGIIGNNAAANLTTGGRAGWRG [c.EHF.R] | Chloroplast (partial)
8 | MQVTMKSSAVSGQRVRYYGNGVSCNRRGCSVDWGRAIGIIGNNAAANLTTGGRAGWRGLTQTAESFRGVSSQFFDAPNGPSVKQVLIEDEW [c.EHF.R.m] | Chloroplast
9 | MQVTMKSSAVSGQRVRYYGNGVSCNRRGCSVDWGRAIGIIGNNAAANLTTGGRAGWRGSVRRAQLQVVASSRKQMGRWRSIDAGVDASDDQ [c.EHF.R.c] | Chloroplast
10 | MQVTMKSSAVSGQRVSFLTTFRDLAIRAARSAGQSVLSTLSCRLSNTC [c.B2I.R] | Mitochondria (partial)
11 | MQVTMKSSAVSGQRVSFLTTFRDLAIRAARSAGQSVLSTLSCRLSNTCLTQTAESFRGVSSQFFDAPNGPSVKQVLIEDEW [c.B2I.R.m] | Dual
12 | MQVTMKSSAVSGQRVSFLTTFRDLAIRAARSAGQSVLSTLSCRLSNTCSVRRAQLQVVASSRKQMGRWRSIDAGVDASDDQ [c.B2I.R.c] | Chloroplast
13 | MRYYGNGVSCNRRGCSVDWGRAIGIIGNNAAANLTTGGRAGWRG [EHF.R] | Neither
14 | MRYYGNGVSCNRRGCSVDWGRAIGIIGNNAAANLTTGGRAGWRGLTQTAESFRGVSSQFFDAPNGPSVKQVLIEDEW [EHF.R.m] | Chloroplast
15 | MRYYGNGVSCNRRGCSVDWGRAIGIIGNNAAANLTTGGRAGWRGSVRRAQLQVVASSRKQMGRWRSIDAGVDASDDQ [EHF.R.c] | Chloroplast
16 | MSFLTTFRDLAIRAARSAGQSVLSTLSCRLSNTC [B2I.R] | Mitochondria
17 | MSFLTTFRDLAIRAARSAGQSVLSTLSCRLSNTCLTQTAESFRGVSSQFFDAPNGPSVKQVLIEDEW [B2I.R.m] | Mitochondria
18 | MSFLTTFRDLAIRAARSAGQSVLSTLSCRLSNTCSVRRAQLQVVASSRKQMGRWRSIDAGVDASDDQ [B2I.R.c] | Mitochondria
19 | MSVRRAQLQVVASSRKQMGRWRSIDAGVDASDDQ [-.c] | Neither

Same assay, conditions: peptide-Venus reporter construct expressed in Chlamydomonas reinhardtii; manual targeting assignment (Neither / Mitochondria / Chloroplast / Dual; partial = partial targeting)

Row | Sequence | Localisation
20 | MQVTMKSSAVSGQRVMVNYGNGVSCSKTKCSVNWGIITHQAFRVTSGVASG [c.B15.K] | Neither
21 | MQVTMKSSAVSGQRVMVNYGNGVSCSKTKCSVNWGIITHQAFRVTSGVASGLTQTAESFRGVSSQFFDAPNGPSVKQVLIEDEW [c.B15.K.m] | Chloroplast
22 | MQVTMKSSAVSGQRVMVNYGNGVSCSKTKCSVNWGIITHQAFRVTSGVASGSVRRAQLQVVASSRKQMGRWRSIDAGVDASDDQ [c.B15.K.c] | Chloroplast
23 | MQVTMKSSAVSGQRVMVNYGNGVSCSRTRCSVNWGIITHQAFRVTSGVASG [c.B15.R] | Chloroplast
24 | MQVTMKSSAVSGQRVMVNYGNGVSCSRTRCSVNWGIITHQAFRVTSGVASGLTQTAESFRGVSSQFFDAPNGPSVKQVLIEDEW [c.B15.R.m] | Chloroplast
25 | MQVTMKSSAVSGQRVMVNYGNGVSCSRTRCSVNWGIITHQAFRVTSGVASGSVRRAQLQVVASSRKQMGRWRSIDAGVDASDDQ [c.B15.R.c] | Chloroplast
26 | MQVTMKSSAVSGQRVMWLSKTAKKLENSAKKRISEGIAIAIKGGSRSVRRAQLQVVASSRKQMGRWRSIDAGVDASDDQ [c.CP3.K.c] | Neither
27 | MQVTMKSSAVSGQRVMWLSRTARRLENSARRRISEGIAIAIRGGSRSVRRAQLQVVASSRKQMGRWRSIDAGVDASDDQ [c.CP3.R.c] | Chloroplast
28 | MVNYGNGVSCSKTKCSVNWGIITHQAFRVTSGVASG [B15.K] | Neither
29 | MVNYGNGVSCSKTKCSVNWGIITHQAFRVTSGVASGLTQTAESFRGVSSQFFDAPNGPSVKQVLIEDEW [B15.K.m] | Neither
30 | MVNYGNGVSCSKTKCSVNWGIITHQAFRVTSGVASGSVRRAQLQVVASSRKQMGRWRSIDAGVDASDDQ [B15.K.c] | Chloroplast
31 | MVNYGNGVSCSRTRCSVNWGIITHQAFRVTSGVASG [B15.R] | Neither
32 | MVNYGNGVSCSRTRCSVNWGIITHQAFRVTSGVASGLTQTAESFRGVSSQFFDAPNGPSVKQVLIEDEW [B15.R.m] | Neither

Same assay, conditions: targeting of the Venus reporter fused to the peptide, expressed in Chlamydomonas reinhardtii; manual assignment from epifluorescence microscopy; full or partial

Row | Sequence | Localisation
33 | MQVTMKSSAVSGQRVMKYYGNGVSCNKKGCSVDWGKAIGIIGNNAAANLTTGGKAGWKG [c.EHF.K] | Neither
34 | MQVTMKSSAVSGQRVMKYYGNGVSCNKKGCSVDWGKAIGIIGNNAAANLTTGGKAGWKGLTQTAESFRGVSSQFFDAPNGPSVKQVLIEDEW [c.EHF.K.m] | Chloroplast
35 | MQVTMKSSAVSGQRVMKYYGNGVSCNKKGCSVDWGKAIGIIGNNAAANLTTGGKAGWKGSVRRAQLQVVASSRKQMGRWRSIDAGVDASDDQ [c.EHF.K.c] | Chloroplast
36 | MQVTMKSSAVSGQRVMSFLTTFKDLAIKAAKSAGQSVLSTLSCKLSNTC [c.B2I.K] | Mitochondria (partial)
37 | MQVTMKSSAVSGQRVMSFLTTFKDLAIKAAKSAGQSVLSTLSCKLSNTCLTQTAESFRGVSSQFFDAPNGPSVKQVLIEDEW [c.B2I.K.m] | Mitochondria
38 | MQVTMKSSAVSGQRVMSFLTTFKDLAIKAAKSAGQSVLSTLSCKLSNTCSVRRAQLQVVASSRKQMGRWRSIDAGVDASDDQ [c.B2I.K.c] | Chloroplast (partial)
39 | MQVTMKSSAVSGQRVMWLSKTAKKLENSAKKRISEGIAIAIKGGSR [c.CP3.K] | Neither
40 | MQVTMKSSAVSGQRVMWLSKTAKKLENSAKKRISEGIAIAIKGGSRLTQTAESFRGVSSQFFDAPNGPSVKQVLIEDEW [c.CP3.K.m] | Chloroplast
41 | MQVTMKSSAVSGQRVMWLSRTARRLENSARRRISEGIAIAIRGGSR [c.CP3.R] | Chloroplast (partial)
42 | MQVTMKSSAVSGQRVMWLSRTARRLENSARRRISEGIAIAIRGGSRLTQTAESFRGVSSQFFDAPNGPSVKQVLIEDEW [c.CP3.R.m] | Neither
43 | MQVTMKSSAVSGQRVNIVVYWNFTLWHMDINARNAGCDGEGS [c.RP1.K] | Neither
44 | MQVTMKSSAVSGQRVNIVVYWNFTLWHMDINARNAGCDGEGSLTQTAESFRGVSSQFFDAPNGPSVKQVLIEDEW [c.RP1.K.m] | Neither
45 | MQVTMKSSAVSGQRVNIVVYWNFTLWHMDINARNAGCDGEGSSVRRAQLQVVASSRKQMGRWRSIDAGVDASDDQ [c.RP1.K.c] | Neither
46 | MQVTMKSSAVSGQRVSVRRAQLQVVASSRKQMGRWRSIDAGVDASDDQ [c.-.c] | Chloroplast (partial)
47 | MSFLTTFKDLAIKAAKSAGQSVLSTLSCKLSNTC [B2I.K] | Mitochondria
48 | MSFLTTFKDLAIKAAKSAGQSVLSTLSCKLSNTCLTQTAESFRGVSSQFFDAPNGPSVKQVLIEDEW [B2I.K.m] | Mitochondria
49 | MSFLTTFKDLAIKAAKSAGQSVLSTLSCKLSNTCSVRRAQLQVVASSRKQMGRWRSIDAGVDASDDQ [B2I.K.c] | Mitochondria
